Each structure is given as a SMILES string.

We go through seven compounds from patent US5188937A, “Layered sandwich assay method for chlamydia and materials therefor” (Becton, Dickinson and Company, priority 1991, dated 1993).

T1 sequence (P12337 19-565): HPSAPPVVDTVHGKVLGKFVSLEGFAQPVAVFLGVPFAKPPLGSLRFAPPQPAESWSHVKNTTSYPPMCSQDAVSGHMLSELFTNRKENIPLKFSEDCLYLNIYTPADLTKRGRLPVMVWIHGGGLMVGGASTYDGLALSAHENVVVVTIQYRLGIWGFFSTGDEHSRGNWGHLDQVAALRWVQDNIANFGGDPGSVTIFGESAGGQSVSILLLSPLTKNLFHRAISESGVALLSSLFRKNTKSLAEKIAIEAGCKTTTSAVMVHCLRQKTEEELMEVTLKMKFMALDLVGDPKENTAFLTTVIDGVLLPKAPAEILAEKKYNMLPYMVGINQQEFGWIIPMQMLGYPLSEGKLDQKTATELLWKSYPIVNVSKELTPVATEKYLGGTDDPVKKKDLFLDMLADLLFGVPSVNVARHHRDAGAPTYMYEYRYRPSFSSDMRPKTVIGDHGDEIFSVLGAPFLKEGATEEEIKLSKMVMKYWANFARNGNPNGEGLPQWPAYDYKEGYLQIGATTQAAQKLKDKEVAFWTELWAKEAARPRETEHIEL

The assay has as its target T1, Rabbit Liver Esterase (E.C. 3.1.1.1) (Oryctolagus cuniculus, UniProt P12337).
T1 construct: from tissue; host or cells: rabbit liver
Description: Inhibition constants, esterase hydrolysis of o-nitrophenyl butyrate followed spectrophotometrically. The assay is classed as biochemical. Particulars: RLE; 50 mM Tris pH=8.0; enzyme and inhibitor incubated at ambient temperature for 20 minutes. As for the experimental part: Inhibition constants were measured in 50 mM Tris pH=8.0. Enzyme and inhibitor were incubated at ambient temperature for 20 minutes. Substrate for the enzyme was then added and the rate of hydrolysis was followed spectrophotometrically. The substrate for PLE and RLE was o-nitro-phenylbutrate and for AChE was acetyl thiocholine and Ellman's reagent.
What is called Ki is the equilibrium dissociation constant of an inhibitor or competing ligand from its target. Read a low Ki as higher affinity. `O=C(CCc1ccc(O)cc1)C(F)(F)C(F)(F)F` [1,1,1,2,2-pentafluoro-5-(4-hydroxyphenyl)-3-pentanone] registered a Ki of 800 nM.
As for `O=C(Cc1ccc(O)cc1)C(F)(F)F` [1,1,1-trifluoro-3-(4-hydroxyphenyl)propanone], the Ki came out at 2000 nM.
Under `O=C(CCc1cccc(O)c1)C(F)(F)F` [1,1,1-trifluoro-4-(3-hydroxyphenyl)-2-butanone] stands 100 nM; under `O=C(CCc1ccc(O)cc1)C(F)(F)F` [1,1,1-trifluoro-4-(4-hydroxyphenyl)-2-butanone], 20 nM; under `O=C(CCCc1cccc(O)c1)C(F)(F)F` [1,1,1-trifluoro-5-(3-hydroxyphenyl)-2-pentanone], 170 nM.
`O=C(CCCc1ccc(O)cc1)C(F)(F)F` [1,1,1-trifluoro-5-(4-hydroxyphenyl)-2-pentanone]: affinity was put at a Ki of 10 nM. Against the preceding compound, the Ki is about 17-fold lower.
With `O=C(CCCCc1ccc(O)cc1)C(F)(F)F` [1,1,1-trifluoro-6-(4-hydroxyphenyl)-2-hexanone] the figure was 20 nM.
